This is an account of results in patent US6486185B1, “3-heteroarylidene-2-indolinone protein kinase inhibitors” (Sugen, Inc., priority 1997, dated 2002).

Usually IC50 stands for the point on the concentration scale where inhibition reaches its midpoint. A higher IC50 goes with a need for much substance.

T1 sequence (P00533 25-1210): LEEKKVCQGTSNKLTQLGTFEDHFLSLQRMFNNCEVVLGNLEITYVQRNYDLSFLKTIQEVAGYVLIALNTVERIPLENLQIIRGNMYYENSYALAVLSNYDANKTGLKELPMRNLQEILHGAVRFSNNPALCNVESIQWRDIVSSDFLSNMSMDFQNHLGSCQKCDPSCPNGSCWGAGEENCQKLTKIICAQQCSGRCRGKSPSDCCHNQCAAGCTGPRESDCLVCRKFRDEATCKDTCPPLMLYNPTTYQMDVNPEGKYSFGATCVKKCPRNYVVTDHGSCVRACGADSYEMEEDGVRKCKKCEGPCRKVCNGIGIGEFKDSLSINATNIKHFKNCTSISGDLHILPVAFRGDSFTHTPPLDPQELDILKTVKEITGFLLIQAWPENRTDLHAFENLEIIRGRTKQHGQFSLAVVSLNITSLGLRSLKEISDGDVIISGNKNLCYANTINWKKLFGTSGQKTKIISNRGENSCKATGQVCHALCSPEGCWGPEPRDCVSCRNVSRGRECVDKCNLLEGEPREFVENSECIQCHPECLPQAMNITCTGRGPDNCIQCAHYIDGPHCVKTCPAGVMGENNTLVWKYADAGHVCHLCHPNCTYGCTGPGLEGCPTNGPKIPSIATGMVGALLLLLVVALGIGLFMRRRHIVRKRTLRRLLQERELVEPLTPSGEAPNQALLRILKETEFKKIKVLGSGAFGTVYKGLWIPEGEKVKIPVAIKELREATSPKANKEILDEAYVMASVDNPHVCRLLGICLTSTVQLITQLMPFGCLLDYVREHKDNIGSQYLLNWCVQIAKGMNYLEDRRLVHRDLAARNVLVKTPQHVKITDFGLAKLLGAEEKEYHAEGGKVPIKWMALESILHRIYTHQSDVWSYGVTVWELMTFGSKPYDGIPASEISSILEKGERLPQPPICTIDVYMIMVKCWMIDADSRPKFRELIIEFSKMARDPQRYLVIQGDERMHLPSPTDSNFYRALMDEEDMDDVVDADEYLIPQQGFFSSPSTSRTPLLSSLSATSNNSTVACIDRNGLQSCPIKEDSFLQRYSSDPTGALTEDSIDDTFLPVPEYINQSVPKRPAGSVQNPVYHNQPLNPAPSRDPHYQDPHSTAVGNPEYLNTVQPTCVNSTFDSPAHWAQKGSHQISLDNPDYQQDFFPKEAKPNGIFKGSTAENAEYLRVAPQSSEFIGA

The experiment has as its target T1, EGFR (Homo sapiens, UniProt P00533).
T1 construct: expressed in transfected cells; host or cells: NIH 3T3/C7
As to the kind of experiment: EGF receptor ELISA in cells engineered to express human EGF-R. The format is cell-based. To be noted: 50% inhibition of PTK activity over control. The method, then: The cellular/catalytic assays described herein are performed in an ELISA format. The general procedure is a follows: a compound is introduced to cells expressing the test kinase, either naturally or recombinantly, for some period of time after which, if the test kinase is a receptor, a ligand known to activate the receptor's activity is added. The cells are lysed and the lysate is transferred to the wells of an ELISA plate previously coated with a specific antibody recognizing the substrate of the enzymatic phosphorylation reaction. Non-substrate components of the cell lysate are washed away and the amount of phosphorylation on the substrate is detected with an antibody specifically recognizing phosphotyrosine compared with control cells that were not contacted with a test compound.
EGF Receptor kinase activity in cells genetically engineered to express human EGF-R can be measured as described below:
The following materials and reagents are used
a. EGF Ligand: stock concentration=16.5 μM; EGF 201, TOYOBO, Co., Ltd. Japan.
b. 05-101 (UBI) (a monoclonal antibody recognizing an EGFR extracellular domain).
c. Anti-phosphotyosine antibody (anti-Ptyr) (polyclonal).
d. Detection antibody: Goat anti-rabbit lgG horse radish peroxidase conjugate, TAGO, Inc., Burlingame, Calif.
Keep solution in dark at 4 C until used.
The following protocol is used:
1. Coat ELISA plates (Corning, 96 well, Cat. #25805-96) with 05-101 antibody at 0.5 μg per well in PBS, 150 μL final volume/well, and store overnight at 4° C. Coated plates are good for up to 10 days when stored at 4° C.
2. On day of use, remove coating buffer and replace with blocking buffer (5% Carnation Instant NonFat Dry Milk in PBS). Incubate the plate, shaking, at room temperature (about 23° C. to 25° C.) for 30 minutes. Just prior to use, remove blocking buffer and wash plate 4 times with TBST buffer.
1. NIH 3T3/C7 cell line (Honegger, et al., Cell 51:199-209, 1987) can be use for this assay.
2. Choose dishes having 80-90% confluence for the experiment. Trypsinize cells and stop reaction by adding 10% CS DMEM medium. Suspend cells in DMEM medium (10% CS DMEM medium) and centrifuge once at 1000 rpm at room temperature for 5 minutes.
3. Resuspend cells in seeding medium (DMEM, 0.5% bovine serum), and count the cells using trypan blue. Viability above 90% is acceptable. Seed cells in DMEM medium (0.5% bovine serum) at a density of 10,000 cells per well, 100 μL per well, in a 96 well microtiter plate. Incubate seeded cells in 5% CO2 at 37° C. for about 40 hours.
1. Check seeded cells for contamination using an inverted microscope. Dilute drug stock (10 mg/mL in DMSO) 1:10 in DMEM medium, then transfer 5 μL to a test well for a final drug dilution of 1:200 and a final DMSO concentration of 1%. Control wells receive DMSO alone. Incubate in 5% CO2 at 37° C. for one hour.
2. Prepare EGF ligand: dilute stock EGF in DMEM so that upon transfer of 10 μL dilute EGF (1:12 dilution), 25 nM final concentration is attained.
3. Prepare fresh 10 mL HNTG* sufficient for 100 μL per well wherein HNTG* comprises: HNTG stock (2.0 mL), milli-Q H2O (7.3 mL), EDTA, 100 mM, pH 7.0 (0.5 mL), Na3VO4 0.5 M (0.1 mL) and Na4(P2O7), 0.2 M (0.1 mL).
5. After two hours incubation with drug, add prepared EGF ligand to cells, 10 μL per well, to yield a final concentration of 25 nM. Control wells receive DMEM alone. Incubate, shaking, at room temperature, for 5 minutes.
6. Remove drug, EGF, and DMEM. Wash cells twice with PBS. Transfer HNTG* to cells, 100 μL per well. Place on ice for 5 minutes. Meanwhile, remove blocking buffer from other ELISA plate and wash with TBST as described above.
7. With a pipette tip securely fitted to a micropipettor, scrape cells from plate and homogenize cell material by repeatedly aspirating and dispensing the HNTG* lysis buffer. Transfer lysate to a coated, blocked, and washed ELISA plate. Incubate shaking at room temperature for one hour.
8. Remove lysate and wash 4 times with TBST. […]
On the technique in general: An ELISA detects its analyte on a solid surface through an enzyme-linked reagent.
`Cc1c[nH]c(C=C2C(=O)Nc3ccccc32)c1CCC(=O)O` [3-[3-(2-carboxyethyl-4-methylpyrrol-2-methylidenyl]-2-indolinone] returned an IC50 greater than 100 µM.
With `CCOC(=O)c1c(C)[nH]c(C=C2C(=O)Nc3ccc(Br)cc32)c1C` [3-(2,4-dimethyl-3-ethoxycarbonylpyrrol-5-methylidenyl)-5-bromo-2-indolinone], the IC50 is greater than 25 µM.
Under `CC(=O)c1[nH]c(C=C2C(=O)Nc3ccccc32)c(C)c1C` [3-(2-acetyl-3,4-dimethylpyrrol-5-methylidenyl)-2-indolinone] stands greater than 100 µM.
For the compound `COC(=O)Cc1c(Cl)[nH]c(C=C2C(=O)Nc3ccccc32)c1C(=O)OC` [3-(2-chloro-4-methoxycarbonyl-3-methoxycarbonylmethylpyrrol-5-methylidenyl)-2-indolinone], the IC50 was greater than 50 µM.
With `CCOC(=O)CCc1c(C(=O)OCC)[nH]c(C=C2C(=O)Nc3ccccc32)c1CC(=O)OCC` [3-[2-ethoxycarbonyl-3-(2-ethoxycarbonylethyl)-4-ethoxycarbonylmethyl)pyrrol-5-methylidenyl)-2-indolinone], the IC50 is greater than 10 µM.
Under `CCOC(=O)c1[nH]c(C=C2C(=O)Nc3ccccc32)c(C(C)=O)c1C` [3-(4-acetyl-2-ethoxycarbonyl-3-methylpyrrol-5-methylidenyl)-2-indolinone] stands greater than 10 µM; under `CCOC(=O)c1c[nH]c(C=C2C(=O)Nc3ccccc32)c1C` [3-(4-ethoxycarbonyl-3-methylpyrrol-2-methylidenyl)-2-indolinone], greater than 100 µM.
Under `COC(=O)CCc1c[nH]c(C=C2C(=O)Nc3cc(OC)c(OC)cc32)c1C` [3-[4-(2-methoxycarbonylethyl)-3-methylpyrrol-2-methylidenyl]-5,6-dimethoxy-2-indolinone] stands greater than 50 µM; under `COC(=O)CCc1c[nH]c(C=C2C(=O)Nc3ccccc32)c1C` [3-[4-(2-methoxycarbonylethyl-3-methylpyrrol-2-methylidenyl]-2-indolinone], greater than 100 µM.
Under `CCOC(=O)c1c(C)[nH]c(C=C2C(=O)Nc3ccc(NC(=O)c4ccc(C(=O)OC)cc4)cc32)c1C` [3-(2,4-dimethyl-3-ethoxycarbonylpyrrol-5-methylidenyl)-5-(4-methoxycarbonylbenzamido)-2-indolinone] stands greater than 10 µM.
